Measurements as given in ChEMBL document CHEMBL4732026, “Benzimidazole-1,2,3-triazole hybrid molecules: synthesis and study of their interaction with G-quadruplex DNA” (RSC Med Chem, 2021).
One block for each compound: values may come before it. Activity calls are given as the source filed them. The calls are words filed in the database; no cut-off is given here.

How the values were obtained:
[1] = system: B16-F10; test: Cytotoxicity against mouse B16-F10 cells assessed as reduction in cell viability measured after 72 hrs by MTT assay; assay type: functional, cell-based; conditions: B16-F10, 72 h
[2] = system: CHO-K1; test: Cytotoxicity against […] cells assessed as reduction in cell viability measured after 72 hrs by MTT assay; assay type: cell-based; conditions: Cricetulus griseus, CHO-K1, 72 h
[3] = system: PC-3; test: Cytotoxicity against human PC3 cells assessed as reduction in cell viability measured after 72 hrs by MTT assay; assay type: functional, cell-based; conditions: PC-3, 72 h
[4] = system: PC-3; test: Induction of apoptosis in human PC-3 cells assessed as viable cells at 98 uM after 48 hrs by Annexin V based flow cytometric analysis (reference value: 89.57%); assay type: functional; conditions: read-out: Activity
[5] = system: PC-3; test: Induction of apoptosis in human PC-3 cells assessed as apoptotic cells at 91 uM incubated for 48 hrs by AnnexinV based flow cytometric analysis (reference value: 10.43%); assay type: functional
[6] = Induction of apoptosis in CHO-K1 cells assessed as viable cells at 63 uM after 48 hrs by Annexin V based flow cytometric analysis (reference value: 93.71%); assay type: cell-based, Cricetulus griseus; conditions: chinese hamster, read-out: Activity
[7] = system: PC-3; test: Induction of apoptosis in human PC-3 cells assessed as necrotic cells at 98 uM after 48 hrs by Annexin V based flow cytometric analysis (reference value: 0.79%); assay type: functional
[8] = system: CHO-K1; test: Induction of apoptosis in CHO-K1 cells assessed as early apoptic cells at 60 uM after 48 hrs by Annexin V based flow cytometric analysis (reference value: 4.58%); assay type: cell-based, Cricetulus griseus; conditions: chinese hamster, cho-k1, 48 h
[9] = system: CHO-K1; test: Induction of apoptosis in CHO-K1 cells assessed as early apoptic cells at 63 uM after 48 hrs by Annexin V based flow cytometric analysis (reference value: 4.58%); assay type: cell-based, Cricetulus griseus; conditions: chinese hamster, cho-k1, 48 h
[10] = system: CHO-K1; test: Induction of reactive oxygen species generation in CHO-K1 cells after 48 hrs by DCFH-DA staining based flow cytometeric analysis; assay type: cell-based, Cricetulus griseus; conditions: chinese hamster, cho-k1, 48 h
[11] = system: PC-3; test: Induction of apoptosis in human PC-3 cells assessed as necrotic cells at 91 uM after 48 hrs by Annexin V based flow cytometric analysis (reference value: 0.79%); assay type: functional
[12] = system: PC-3; test: Induction of apoptosis in human PC-3 cells assessed as viable cells at 91 uM after 48 hrs by Annexin V based flow cytometric analysis (reference value: 89.57%); assay type: functional; conditions: read-out: Activity
[13] = system: CHO-K1; test: Induction of apoptosis in CHO-K1 cells assessed as late apoptic cells at 60 uM after 48 hrs by Annexin V based flow cytometric analysis (reference value: 1.01%); assay type: cell-based, Cricetulus griseus; conditions: chinese hamster, cho-k1, 48 h
[14] = system: PC-3; test: Induction of apoptosis in human PC-3 cells assessed as apoptotic cells at 98 uM incubated for 48 hrs by AnnexinV based flow cytometric analysis (reference value: 10.43%); assay type: functional
[15] = system: CHO-K1; test: Induction of apoptosis in CHO-K1 cells assessed as apoptic cells at 63 uM after 48 hrs by Annexin V based flow cytometric analysis (reference value: 6.29%); assay type: cell-based, Cricetulus griseus; conditions: chinese hamster, cho-k1, 48 h
[16] = system: PC-3; test: Induction of apoptosis in human PC-3 cells assessed as early apoptic cells at 98 uM after 48 hrs by Annexin V based flow cytometric analysis (reference value: 0.40%); assay type: functional
[17] = system: PC-3; test: Induction of apoptosis in human PC-3 cells assessed as early apoptic cells at 91 uM after 48 hrs by Annexin V based flow cytometric analysis (reference value: 0.40%); assay type: functional
[18] = Induction of apoptosis in CHO-K1 cells assessed as viable cells at 60 uM after 48 hrs by Annexin V based flow cytometric analysis (reference value: 93.71%); assay type: cell-based, Cricetulus griseus; conditions: chinese hamster, read-out: Activity
[19] = system: CHO-K1; test: Induction of apoptosis in CHO-K1 cells assessed as apoptic cells at 60 uM after 48 hrs by Annexin V based flow cytometric analysis (reference value: 6.29%); assay type: cell-based, Cricetulus griseus; conditions: chinese hamster, cho-k1, 48 h
[20] = system: CHO-K1; test: Induction of apoptosis in CHO-K1 cells assessed as necrotic cells at 60 uM after 48 hrs by Annexin V based flow cytometric analysis (reference value: 0.70%); assay type: cell-based, Cricetulus griseus; conditions: chinese hamster, cho-k1, 48 h
[21] = system: CHO-K1; test: Induction of apoptosis in CHO-K1 cells assessed as late apoptic cells at 63 uM after 48 hrs by Annexin V based flow cytometric analysis (reference value: 1.01%); assay type: cell-based, Cricetulus griseus; conditions: chinese hamster, cho-k1, 48 h
[22] = system: PC-3; test: Induction of apoptosis in human PC-3 cells assessed as late apoptic cells at 91 uM after 48 hrs by Annexin V based flow cytometric analysis (reference value: 9.24%); assay type: functional
[23] = system: PC-3; test: Induction of apoptosis in human PC-3 cells assessed as late apoptic cells at 98 uM after 48 hrs by Annexin V based flow cytometric analysis (reference value: 9.24%); assay type: functional
[24] = system: CHO-K1; test: Induction of apoptosis in CHO-K1 cells assessed as necrotic cells at 63 uM after 48 hrs by Annexin V based flow cytometric analysis (reference value: 0.70%); assay type: cell-based, Cricetulus griseus; conditions: chinese hamster, cho-k1, 48 h
[25] = system: Quadruplex DNA; test: Binding affinity to c-Myc G-quadruplex DNA (unknown origin) assessed as increase in fluorescence intensity at 8.5 uM incubated for 5 mins by spectrofluorometric analysis; assay type: nucleic-acid assay
[26] = system: dsDNA; test: Binding affinity to double strand DNA (unknown origin) assessed as hypsochromic shift at 10.3 uM incubated for 5 mins by UV- vis spectrophotometric analysis; assay type: nucleic-acid assay
[27] = system: dsDNA; test: Binding affinity to double strand DNA (unknown origin) assessed as increase in fluorescence intensity at 8.5 uM incubated for 5 mins by spectrofluorometric analysis; assay type: nucleic-acid assay
[28] = system: Quadruplex DNA; test: Binding affinity to c-Myc G-quadruplex DNA (unknown origin) assessed as hyperchromicity at 10.3 uM incubated for 5 mins by UV- vis spectrophotometric analysis; assay type: nucleic-acid assay
[29] = system: Quadruplex DNA; test: Binding affinity to Tel Q G-quadruplex DNA (unknown origin) assessed as hypsochromic shift at 10.3 uM incubated for 5 mins by UV- vis spectrophotometric analysis; assay type: nucleic-acid assay
[30] = system: Quadruplex DNA; test: Binding affinity to c-Myc G-quadruplex DNA (unknown origin) assessed as increase in fluorescence intensity at 10.3 uM incubated for 5 mins by spectrofluorometric analysis; assay type: nucleic-acid assay
[31] = system: Quadruplex DNA; test: Binding affinity to Tel Q G-quadruplex DNA (unknown origin) assessed as hyperchromicity at 10.3 uM incubated for 5 mins by UV- vis spectrophotometric analysis; assay type: nucleic-acid assay
[32] = system: Quadruplex DNA; test: Binding affinity to Tel Q G-quadruplex DNA (unknown origin) assessed as increase in fluorescence intensity at 10.3 uM incubated for 5 mins by spectrofluorometric analysis; assay type: nucleic-acid assay
[33] = system: Quadruplex DNA; test: Binding affinity to Tel Q G-quadruplex DNA (unknown origin) assessed as increase in fluorescence intensity at 8.5 uM incubated for 5 mins by spectrofluorometric analysis; assay type: nucleic-acid assay
[34] = biological target: Quadruplex DNA; test: Binding affinity to c-Myc G-quadruplex DNA (unknown origin) assessed as dissociation constant incubated for 5 mins by UV- vis spectrophotometric analysis; assay type: nucleic-acid assay
[35] = biological target: Quadruplex DNA; test: Binding affinity to Tel Q G-quadruplex DNA (unknown origin) assessed as dissociation constant incubated for 5 mins by UV- vis spectrophotometric analysis; assay type: nucleic-acid assay
[36] = biological target: dsDNA; test: Binding affinity to double strand DNA (unknown origin) assessed as dissociation constant incubated for 5 mins by UV- vis spectrophotometric analysis; assay type: nucleic-acid assay
[37] = system: dsDNA; test: Stabilization of double strand DNA (unknown origin) assessed as change in melting temperature at 10.3 uM incubated for 5 mins by UV-visible thermal denaturation study; assay type: nucleic-acid assay
[38] = system: Quadruplex DNA; test: Stabilization of c-Myc G-quadruplex DNA (unknown origin) assessed as change in melting temperature at 10.3 uM incubated for 5 mins by UV-visible thermal denaturation study; assay type: nucleic-acid assay
[39] = system: dsDNA; test: Binding affinity to double strand DNA (unknown origin) assessed as hyperchromicity at 10.3 uM incubated for 5 mins by UV- vis spectrophotometric analysis; assay type: nucleic-acid assay
[40] = system: Quadruplex DNA; test: Binding affinity to c-Myc G-quadruplex DNA (unknown origin) assessed as hypsochromic shift at 10.3 uM incubated for 5 mins by UV- vis spectrophotometric analysis; assay type: nucleic-acid assay
[41] = system: Quadruplex DNA; test: Stabilization of Tel Q G-quadruplex DNA (unknown origin) assessed as change in melting temperature at 10.3 uM incubated for 5 mins by UV-visible thermal denaturation study; assay type: nucleic-acid assay
[42] = system: dsDNA; test: Binding affinity to double strand DNA (unknown origin) assessed as increase in fluorescence intensity at 10.3 uM incubated for 5 mins by spectrofluorometric analysis; assay type: nucleic-acid assay

Structure (SMILES): Cc1c(NC(=O)Cn2cc(CSc3nc4cc(OC(F)F)ccc4[nH]3)nn2)cccc1[N+](=O)[O-]
IC50 [1]: 103 µM
IC50 [2]: 62.2 µM
IC50 [3]: 66.2 µM

Structure (SMILES): FC(F)Oc1ccc2[nH]c(SCc3cn(-c4cccc(Cl)c4Cl)nn3)nc2c1
IC50 [1]: 90.5 µM
IC50 [2]: 85 µM
IC50 [3]: 69.8 µM

Structure (SMILES): Fc1ccc(-n2cc(CSc3nc4cc(OC(F)F)ccc4[nH]3)nn2)cc1F
IC50 [1]: 56.8 µM
IC50 [2]: 56.1 µM
IC50 [3]: 65.2 µM

Structure (SMILES): O=C(Cn1cc(CSc2nc3cc(OC(F)F)ccc3[nH]2)nn1)Nc1cccc(Cl)c1
IC50 [1]: 135 µM
IC50 [2]: 115 µM
IC50 [3]: 136 µM

Structure (SMILES): C[n+]1ccc(-c2c3nc(c(-c4cc[n+](C)cc4)c4ccc([nH]4)c(-c4cc[n+](C)cc4)c4ccc([nH]4)c(-c4cc[n+](C)cc4)c4nc2C=C4)C=C3)cc1 [TMPYP4]
viability at 98 µM [4]: 51.3%
Activity [5]: 24.8%
viability at 48 h, 63 µM [6]: 75.2%
Activity [7]: 14.36%
Activity [8]: 13.72%
Activity [9]: 18.87%
IC50 [1]: 77 µM
IC50 [2]: 61.4 µM
Activity [10]: Non-Toxic
Activity [11]: 2.38%
viability at 91 µM [12]: 75.2%
Activity [13]: 3.39%
Activity [14]: 48.7%
Activity [15]: 24.84%
Activity [16]: 0.9%
Activity [17]: 4.41%
viability at 48 h, 60 µM [18]: 81.9%
Activity [19]: 18.06%
Activity [20]: 0.95%
Activity [21]: 4.66%
IC50 [3]: 94.8 µM
Activity [22]: 18.01%
Activity [23]: 33.44%
Activity [24]: 1.31%

Activity [25]: Active
Activity [26]: 1.6 nm
Activity [27]: Active
Activity [28]: 11.7%
Activity [29]: 2.9 nm
Activity [30]: Active
Activity [31]: 31.4%
Activity [32]: Active
Activity [33]: Active
Kd [34]: 79.2 µM
Kd [35]: 87.3 µM
Kd [36]: 191 µM
ΔTm [37]: 0 °C
ΔTm [38]: -5 °C
Activity [39]: 15.9%
Activity [40]: 0.6 nm
ΔTm [41]: 9 °C
Activity [42]: Active
Structure (SMILES): O=[N+]([O-])c1ccc(-n2cc(CSc3nc4cc(OC(F)F)ccc4[nH]3)nn2)cc1
IC50 [1]: 203 µM
IC50 [2]: 100 µM
IC50 [3]: 59.2 µM
